Consider three compounds from article PMC7943464, “Dim Red Light During Scotophase Enhances Mating of a Moth Through Increased Male Antennal Sensitivity Against the Female Sex Pheromone” (Frontiers in Genetics, 2021).

The target in this experiment is T1, CpunOBP2 (Conogethes punctiferalis, UniProt A0A0C4K8H3).
T1 construct: gene OBP2; pET-32a(+) in E. coli BL21(DE3); Ni-IDA purified; tags removed by enterokinase
T1 sequence (A0A0C4K8H3 23-151): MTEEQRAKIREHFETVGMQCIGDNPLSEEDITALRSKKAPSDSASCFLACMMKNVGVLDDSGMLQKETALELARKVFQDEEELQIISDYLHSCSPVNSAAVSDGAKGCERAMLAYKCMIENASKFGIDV
In words: competitive 1-NPN fluorescence displacement. It is filed as binding. An excerpt:
competitive 1-NPN fluorescence displacement on CpunOBP2
Compound `CCCCC/C=C/CCCCCCCCC=O` [E10-16∶Ald, (E)-10-hexadecenal] yielded an IC50 of 9.55 ± 4.58 µM and an inhibitory constant (Ki) of 8.48 ± 4.06 µM.

Compound `CC/C=C\C/C=C\C/C=C\CCCCCCCCCCCCC` [Z3, Z6, Z9-23∶HC, (Z3, Z6, Z9)-tricosatriene] returned an IC50 of 4.14 ± 2.63 µM and a Ki of 3.68 ± 2.33 µM.

In turn, `CCCCC/C=C\CCCCCCCCC=O` [Z10-16∶Ald, (Z)-10-hexadecenal] showed an IC50 of 7.73 ± 2.82 µM and a Ki of 6.86 ± 2.5 µM.
